# Several values for one entry are separate records, joined by “and”; a condition that tells them apart may be missing. Identical values can stand only once.
# Key:
# 5-HT1A receptor = conditions: cited from earlier work
# [1] = molecular target: T1, serotonin 5-HT1A receptor (Rattus norvegicus, UniProt P19327); test: Affinity for the serotonin 5-HT1A receptor, displacement of [3H]8-OHDPAT (Hall et al.); assay type: binding; conditions: [3H]8-OHDPAT displacement; for IC50: read-out: Receptor Affinities 5-HT1A (IC50 (nM)); for inhibition at 0.1 µM: read-out: Receptor Affinities 5-HT1A (% @ ( ) μM)
# T1 construct: following the procedure of Hall et al., J. Neurochem; 44, 1685 (1985); from tissue
# T1 sequence (P19327 1-422): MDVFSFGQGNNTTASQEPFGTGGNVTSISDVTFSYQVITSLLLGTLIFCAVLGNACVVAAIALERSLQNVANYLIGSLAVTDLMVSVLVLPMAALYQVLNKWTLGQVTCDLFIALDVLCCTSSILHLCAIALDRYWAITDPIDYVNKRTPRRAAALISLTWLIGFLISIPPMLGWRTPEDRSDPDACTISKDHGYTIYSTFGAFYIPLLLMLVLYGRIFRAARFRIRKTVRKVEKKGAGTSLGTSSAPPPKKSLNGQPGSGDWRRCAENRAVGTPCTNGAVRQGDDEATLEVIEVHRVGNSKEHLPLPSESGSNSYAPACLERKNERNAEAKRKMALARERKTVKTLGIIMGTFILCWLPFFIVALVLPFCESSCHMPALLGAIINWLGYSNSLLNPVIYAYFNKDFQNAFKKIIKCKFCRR
# Text: Affinity for the serotonin 5-HT1A receptor was established by testing the claimed compound's ability to displace [^3 H]8-OHDPAT (dipropylaminotetralin) from the 5-HT1A serotonin receptor following the procedure of Hall et al., J. Neurochem. 44, 1685 (1985). […] The anxiolytic activity of buspirone is believed to be, at least partially, due to its 5-HT1A receptor affinity (Vander Maclen et al., Eur. J. Pharmacol. 1986, 129 (1-2) 133-[…]).
# dopamine D2 receptor = molecular target: T2, dopamine D2 receptor (Rattus norvegicus, UniProt P61169); test: Affinity for the dopamine D2 receptor, 3H-spiroperidol binding in homogenized limbic brain tissue; conditions: for IC50: read-out: Receptor Affinities D2 (IC50 (nM)); for inhibition at 1 µM: read-out: Receptor Affinities D2 (% @ ( ) μM)
# T2 construct: from tissue; host or cells: homogenized limbic brain tissue
# Protocol: Affinity for the dopamine D2 receptor was established by the standard experimental test procedure of Fields, et al., Brain Res., 136, 578 (1977) and Yamamura et al., eds., Neurotransmitter Receptor Binding, Raven Press, New York (1978) wherein homogenized limbic brain tissue is incubated with ^3 H-spiroperidol and various concentrations of test compound, filtered and washed and shaken with Hydrofluor scintillation cocktail (National Diagnostics) and counted in a Packard 460 CD scintillation counter.
# [2] = test system: dopamine synthesis (dopa accumulation; dopamine autoreceptor); test: Inhibition of dopa accumulation in GBL-treated rats (method of Walters and Roth); assay type: in vivo, rat (male, Sprague-Dawley); conditions: rat; for Dopa Accumulation (% inhib. @ 10 mg/kg, sc), limbic (L): limbic (L) brain tissue; for Dopa Accumulation (% inhib. @ 10 mg/kg, sc), striatal (S): striatal (S) brain tissue; for Dopa Accumulation (% inhib. @ 10 mg/kg, sc), tissue not indicated: (L)/(S) mark not given
# Protocol: The effect of the compounds of the invention on the synthesis of dopamine was established by the method of Walters and Roth, Naunyn-Schmiedeberg's Arch. Pharmacol. 296:5-14, 1976, in which rats (male, Sprague-Dawley, Charles River, 200-350 g) were administered vehicle or test drug ten minutes prior to the administration of gamma butyrolactone (GBL; 750 mg/kg, ip to inhibit dopaminergic impulse flow) and 20 minutes prior to NSD-1015 (100 mg/kg, ip to prevent the conversion of dopa to dopamine). Thirty minutes after NSD-1015 all rats were humanely euthenized and the nucleus accumbens and the straitum were removed for analysis. Following perchloric acid extraction of the tissue, the extracts were placed over alumina columns to collect and concentrate dopa and other catechols. This eluate was then subjected to HPLC analysis using electrochemical detection to quantify the levels of dopa present. Dopamine autoreceptor agonists, under the conditions used above, inhibit dopa accumulation.
# mouse locomotor activity = test: Reduction of mouse locomotor activity (hypolocomotion; Martin and Bendensky); assay type: in vivo, mouse (male, CF-1); conditions: horizontal activity counts 10 to 20 minutes after dosing; for ED50: Mus musculus, ip, 20 min
# Protocol: The antipsychotic activity of the compounds of the invention was further established by a determination of the compounds' ability to reduce mouse locomotor activity according to the method of Martin and Bendensky, J. Pharmacol. Exp. Therap. 229: 706-711, 1984, in which mice (male, CF-1, Charles River, 20-30 g) were injected with vehicle or various doses of each drug and locomotor activity was measured for 30 minutes using automated infrared activity monitors (Omnitech-8×8 inch open field) located in a darkened room. ED50's were calculated from the horizontal activity counts collected from 10 to 20 minutes after dosing using a nonlinear regression analysis with inverse prediction.
# T2 sequence (P61169 whole entry): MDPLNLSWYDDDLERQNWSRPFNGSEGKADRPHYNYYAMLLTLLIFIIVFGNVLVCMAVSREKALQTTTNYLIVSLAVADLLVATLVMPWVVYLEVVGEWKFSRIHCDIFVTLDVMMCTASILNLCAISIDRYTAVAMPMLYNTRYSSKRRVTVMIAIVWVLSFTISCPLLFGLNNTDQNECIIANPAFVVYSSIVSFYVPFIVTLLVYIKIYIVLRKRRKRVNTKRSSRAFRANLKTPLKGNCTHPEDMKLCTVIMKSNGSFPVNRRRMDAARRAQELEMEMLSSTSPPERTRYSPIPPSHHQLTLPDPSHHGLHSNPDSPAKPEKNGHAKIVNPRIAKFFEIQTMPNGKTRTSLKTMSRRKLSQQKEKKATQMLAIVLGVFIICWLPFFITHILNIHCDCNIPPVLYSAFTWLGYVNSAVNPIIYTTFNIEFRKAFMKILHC
smiles,measurement,setting,value
"O=C1CC2(CCCC2)CC(=O)N1CCCCNCC1COc2ccccc2O1 (single isomer, unassigned; (-)) [(-)-MDL 72832]",binding at the 5-HT1A receptor site relative to the dextrorotary isomer,"5-HT1A receptor; (-)-isomer vs dextrorotary isomer, Fozard et al. 1987",32 times
"O=c1ccc2ccc(OCCCNCC3COc4ccccc4O3)cc2o1 (stereo not drawn) [Example 1, 7-[3-[[(2,3-Dihydro-1,4-benzodioxin-2-yl)methyl]amino]propoxy]-2H-1-benzopyran-2-one]",IC50,[1],0.5 nM
same,IC50,dopamine D2 receptor,112 nM
same,"Dopa Accumulation (% inhib. @ 10 mg/kg, sc), limbic (L)",[2],39%
same,"Dopa Accumulation (% inhib. @ 10 mg/kg, sc), striatal (S)",[2],1%
same,ED50,mouse locomotor activity,0.58 mg/kg
"COc1cccc2c1OCC(CNCCCOc1ccc3ccc(=O)oc3c1)O2 (stereo not drawn) [Example 2, 7-[3-[[(2,3-Dihydro-5-methoxy-1,4-benzodioxin-2-yl)methyl]amino]propoxy]-2H-1-benzopyran-2-one]","Dopa Accumulation (% inhib. @ 10 mg/kg, sc), limbic (L)",[2],-12%
"O=c1ccc2ccc(OCCCNCC3COc4cc(OCc5ccccc5)ccc4O3)cc2o1 (stereo not drawn) [Example 4, 7-[3-[[(2,3-Dihydro-6-phenylmethoxy-1,4-benzodioxin-2-yl)methyl]amino]propoxy]-2H-1-benzopyran-2-one]","Dopa Accumulation (% inhib. @ 10 mg/kg, sc), limbic (L)",[2],20%
"O=c1ccc2ccc(OCCCNCC3COc4cc(O)ccc4O3)cc2o1 (stereo not drawn) [Example 5, 7-[3-[[(2,3-Dihydro-6-hydroxy-1,4-benzodioxin-2-yl)methyl]amino]propoxy]-2H-1-benzopyran-2-one]",IC50,[1],112 nM
same,IC50,dopamine D2 receptor,337 nM and 730 nM
same,"Dopa Accumulation (% inhib. @ 10 mg/kg, sc), limbic (L)",[2],60%
same,"Dopa Accumulation (% inhib. @ 10 mg/kg, sc), striatal (S)",[2],18%
same,ED50,mouse locomotor activity,1.62 mg/kg
same,"Hypolocomotion (ED50 mg/kg, ip)",mouse locomotor activity,2.04 mg/kg
"O=c1ccc2ccc(OCCCNCC3COc4ccc(O)cc4O3)cc2o1 (stereo not drawn) [Example 6, 7-[3-[[(2,3-Dihydro-7-hydroxy-1,4-benzodioxin-2-yl)methyl]amino]propoxy]-2H-1-benzopyran-2-one]",IC50,[1],6 nM
same,inhibition at 1 µM,dopamine D2 receptor,100%
same,"Dopa Accumulation (% inhib. @ 10 mg/kg, sc), limbic (L)",[2],76%
same,"Dopa Accumulation (% inhib. @ 10 mg/kg, sc), striatal (S)",[2],73%
same,ED50,mouse locomotor activity,0.19 mg/kg
"O=c1ccc2c(OCCCNCC3COc4ccccc4O3)cccc2[nH]1 (stereo not drawn) [Example 7, 5-[3-[[(2,3-Dihydro-1,4-benzodioxin-2-yl)methyl]amino]propoxy]-2(1H)-quinolinone]","Dopa Accumulation (% inhib. @ 10 mg/kg, sc), limbic (L)",[2],1.5%
same,"Dopa Accumulation (% inhib. @ 10 mg/kg, sc), striatal (S)",[2],51.3%
"O=c1ccc2ccc(OCCCNC[C@H]3COc4cc(O)ccc4O3)cc2o1 [Example 8, (S)-7-[3-[[(2,3-Dihydro-6-hydroxy-1,4-benzodioxin-2-yl)methyl]amino]propoxy]-2H-1-benzopyran-2-one]",IC50,[1],104 nM
same,"Dopa Accumulation (% inhib. @ 10 mg/kg, sc), limbic (L)",[2],50%
same,ED50,mouse locomotor activity,3.5 mg/kg
"COc1ccc2c(c1)OC(CNCCCOc1ccc3ccc(=O)oc3c1)CO2 (stereo not drawn) [Example 9, 7-[3-[[(2,3-Dihydro-7-methoxy-1,4-benzodioxin-2-yl)methyl]amino]propoxy]-2H-1-benzopyran-2-one]",inhibition at 1 µM,dopamine D2 receptor,66%
same,"Dopa Accumulation (% inhib. @ 10 mg/kg, sc), limbic (L)",[2],21.7%
"O=c1ccc2ccc(OCCCNC[C@@H]3COc4cc(O)ccc4O3)cc2o1 [Example 10, (R)-7-[3-[[(2,3-Dihydro-6-hydroxy-1,4-benzodioxin-2-yl)methyl]amino]propoxy]-2H-1-benzopyran-2-one]","Dopa Accumulation (% inhib. @ 10 mg/kg, sc), tissue not indicated",[2],24.0%
"CC(=O)Oc1ccc2c(c1)OCC(CNCCCOc1ccc3ccc(=O)oc3c1)O2 (stereo not drawn) [Example 11, 7-[3-[[(2,3-Dihydro-6-acetoxy-1,4-benzodioxin-2-yl)methyl]amino]propoxy]-2H-1-benzopyran-2-one]",inhibition at 0.1 µM,[1],78%
same,"Dopa Accumulation (% inhib. @ 10 mg/kg, sc), limbic (L)",[2],37.7%
"CCN(CCCOc1ccc2ccc(=O)oc2c1)CC1COc2ccc(O)cc2O1 (stereo not drawn) [Example 12, 7-[3-[[(2,3-Dihydro-7-hydroxy-1,4-benzodioxin-2-yl)methyl]ethylamino]propoxy]-2H-1-benzopyran-2-one]",inhibition at 0.1 µM,[1],81%
same,"Dopa Accumulation (% inhib. @ 10 mg/kg, sc), limbic (L)",[2],61.6%
same,ED50,mouse locomotor activity,1.6 mg/kg
COc1ccc2c(c1)OC(CN(C)CCCOc1ccc3ccc(=O)oc3c1)CO2 (stereo not drawn) [Example 14],"Dopa Accumulation (% inhib. @ 10 mg/kg, sc), tissue not indicated",[2],19.5%
"CN(CCCOc1ccc2ccc(=O)oc2c1)CC1COc2cc(O)ccc2O1 (stereo not drawn) [Example 15, 7-[3-[[(2,3-Dihydro-6-hydroxy-1,4-benzodioxin-2-yl)methyl]methylamino]propoxy]-2H-1-benzopyran-2-one]",inhibition at 0.1 µM,[1],23%
same,"Dopa Accumulation (% inhib. @ 10 mg/kg, sc), tissue not indicated",[2],9.2%
COc1cc(OC)c2c(c1)OCC(CNCCCOc1ccc3ccc(=O)oc3c1)O2 (stereo not drawn) [Example 19],"Dopa Accumulation (% inhib. @ 10 mg/kg, sc), limbic (L)",[2],23%
"O=c1ccc2ccc(OCCCNC[C@H]3COc4ccc(O)cc4O3)cc2o1 [Example 20, (S)-7-[3-[[(2,3-Dihydro-7-hydroxy-1,4-benzodioxin-2-yl)methyl]amino]propoxy]-2H-1-benzopyran-2-one]","Dopa Accumulation (% inhib. @ 10 mg/kg, sc), limbic (L)",[2],45%
"O=C1CC2(CCCC2)CC(=O)N1CCCCNCC1COc2ccccc2O1 (stereo not drawn) [MDL 72832, 8-[4-(1,4-benzodioxan-2-ylmethylamino)butyl]-8-azaspiro[4.5]decane-7,9-dione]",selectivity as ligand for 5-HT1A receptors (in words),5-HT1A receptor; Fozard et al. 1987,selective and stereospecific
O=C1CC2(CCCC2)CC(=O)N1CCCCN1CCN(c2ncccn2)CC1 [buspirone],affinity for the 5-HT1A serotonin receptor subtype (in words),5-HT1A receptor; standard for anxiolytic activity,potent affinity

# Source: patent publication US5189171A, “Antipsychotic benzodioxan derivatives” (American Home Products Corporation, priority 1992, dated 1993)
